Results on twelve molecules are retold here after ChEMBL document CHEMBL1142486, “Anti-inflammatory activities of furanoditerpenoids and other constituents from Fibraurea tinctoria” (2008).

For test [1], the system named is Mus musculus. Briefly: Antiinflammatory activity against carrageenan-induced paw edema in ICR mouse at 50 mg/kg, ip administered 30 mins before carrageenan challenge assessed after 0.5 hrs. Particulars: route intraperitoneal. In kind it is functional. A general note: In the carrageenan paw model, swelling and tenderness develop within hours.
The subject of test [2] is Mus musculus. As to the kind of experiment: Antiinflammatory activity against carrageenan-induced paw edema in ICR mouse at 50 mg/kg, ip administered 30 mins before carrageenan challenge assessed after 1 hr. Particulars: route intraperitoneal. Format: functional.
The test system of test [3] is Mus musculus. Briefly: Antiinflammatory activity against carrageenan-induced paw edema in ICR mouse at 50 mg/kg, ip administered 30 mins before carrageenan challenge assessed after 2 hrs. Format: functional. The conditions noted are these: route intraperitoneal.
For test [4], the system named is Mus musculus. Briefly: Antiinflammatory activity against carrageenan-induced paw edema in ICR mouse at 50 mg/kg, ip administered 30 mins before carrageenan challenge assessed after 3 hrs. Format: functional. The conditions noted are these: route intraperitoneal.
Test [5] concerns Mus musculus. Briefly: Antiinflammatory activity against carrageenan-induced paw edema in ICR mouse at 50 mg/kg, ip administered 30 mins before carrageenan challenge assessed after 4 hrs. In kind it is functional. Particulars: route intraperitoneal.
For test [6], the system named is Mus musculus. Briefly: Antiinflammatory activity against carrageenan-induced paw edema in ICR mouse at 50 mg/kg, ip administered 30 mins before carrageenan challenge assessed after 5 hrs. Format: functional. Particulars: route intraperitoneal.
For test [7], the system named is Mus musculus. Briefly: Antiinflammatory activity against carrageenan-induced paw edema in ICR mouse at 100 mg/kg, ip administered 30 mins before carrageenan challenge assessed after 0.5 hrs. In kind it is functional. Particulars: route intraperitoneal.
Test [8] deals with Mus musculus. As to the kind of experiment: Antiinflammatory activity against carrageenan-induced paw edema in ICR mouse at 100 mg/kg, ip administered 30 mins before carrageenan challenge assessed after 1 hr. In kind it is functional. The conditions noted are these: route intraperitoneal.
For test [9], the system named is Mus musculus. Briefly: Antiinflammatory activity against carrageenan-induced paw edema in ICR mouse at 100 mg/kg, ip administered 30 mins before carrageenan challenge assessed after 2 hrs. Format: functional. Particulars: route intraperitoneal.
Test [10] deals with Mus musculus. As to the kind of experiment: Antiinflammatory activity against carrageenan-induced paw edema in ICR mouse at 100 mg/kg, ip administered 30 mins before carrageenan challenge assessed after 3 hrs. Format: functional. The conditions noted are these: route intraperitoneal.
The test system of test [11] is Mus musculus. Briefly: Antiinflammatory activity against carrageenan-induced paw edema in ICR mouse at 100 mg/kg, ip administered 30 mins before carrageenan challenge assessed after 4 hrs. In kind it is functional. The conditions noted are these: route intraperitoneal.
Test [12] has as its system Mus musculus. As to the kind of experiment: Antiinflammatory activity against carrageenan-induced paw edema in ICR mouse at 100 mg/kg, ip administered 30 mins before carrageenan challenge assessed after 5 hrs. In kind it is functional. The conditions noted are these: route intraperitoneal.
Another test has as its system RAW264.7. Briefly: Inhibition of LPS-induced nitric oxide production in mouse RAW264.7 cells assessed as nitrite levels in supernatant after 24 hrs by griess assay. In kind it is functional, cell-based. For orientation: Griess reagent forms a coloured azo dye with nitrite.
The test system of test [13] is Mus musculus. Briefly: Antiinflammatory activity against carrageenan-induced paw edema in ICR mouse at 4 mg/kg, ip administered 30 mins before carrageenan challenge assessed after 0.5 hrs. Format: functional. Particulars: route intraperitoneal.
In test [14] the test system is Mus musculus. Briefly: Antiinflammatory activity against carrageenan-induced paw edema in ICR mouse at 4 mg/kg, ip administered 30 mins before carrageenan challenge assessed after 1 hr. In kind it is functional. Particulars: route intraperitoneal.
For test [15], the system named is Mus musculus. Briefly: Antiinflammatory activity against carrageenan-induced paw edema in ICR mouse at 4 mg/kg, ip administered 30 mins before carrageenan challenge assessed after 2 hrs. Format: functional. The conditions noted are these: route intraperitoneal.
Test [16] relates to Mus musculus. Briefly: Antiinflammatory activity against carrageenan-induced paw edema in ICR mouse at 4 mg/kg, ip administered 30 mins before carrageenan challenge assessed after 3 hrs. In kind it is functional. The conditions noted are these: route intraperitoneal.
The test system of test [17] is Mus musculus. Briefly: Antiinflammatory activity against carrageenan-induced paw edema in ICR mouse at 4 mg/kg, ip administered 30 mins before carrageenan challenge assessed after 4 hrs. Format: functional. Particulars: route intraperitoneal.
Test [18] has as its system Mus musculus. Briefly: Antiinflammatory activity against carrageenan-induced paw edema in ICR mouse at 4 mg/kg, ip administered 30 mins before carrageenan challenge assessed after 5 hrs. Format: functional. Particulars: route intraperitoneal.

Each structure is given as a SMILES string.

As to `C[C@@]12C[C@H](c3ccoc3)OC(=O)C1=CC[C@]1(C)[C@H]2[C@H]2C=C[C@]1(O)C(=O)O2` [FIBLEUCIN], the Activity with Mus musculus [1] amounted to 11.8%; in the test with Mus musculus [2] it was 13.12%; with Mus musculus [3], 17.97%; in the test with Mus musculus [4], 21.61%; in the test on Mus musculus [5] it was 25.29%; with Mus musculus [6], 25.6%. Also, the Activity turned out to be 14.56% in the test on Mus musculus [7]; 17.79% in the test on Mus musculus [8]; 20.68% with Mus musculus [9]; 24.44% with Mus musculus [10]; 26.19% with Mus musculus [11]; 26.02% with Mus musculus [12].
For the molecule `C[C@@]12C[C@H](c3ccoc3)OC(=O)[C@@H]1[C@@H](O)C[C@]1(C)[C@H]2[C@@H]2OC(=O)[C@@]1(O)[C@H]1O[C@@H]21`, in the test on RAW264.7, the Activity result is “Dose-dependent effect”.
For `C[C@@]12C[C@H](c3ccoc3)OC(=O)[C@@H]1CC[C@]1(C)[C@H]2[C@@H]2OC(=O)[C@@]1(O)[C@H]1O[C@@H]21` [CHASMANTHIN], the Activity in the test on Mus musculus [1] turned out to be 15.39%; in the test on Mus musculus [2], 18.46%; with Mus musculus [3], 22.41%; with Mus musculus [4], 23.99%; in the test with Mus musculus [5], 31.6%; in the test on Mus musculus [6], 32.49%. Moreover, the Activity in the test on Mus musculus [7] is recorded as 13.15%; in the test with Mus musculus [8], 18.75%; in the test on Mus musculus [9], 21.76%; with Mus musculus [10], 21.23%; with Mus musculus [11], 23.73%; in the test on Mus musculus [12], 20.71%.
For the molecule `C[C@@]12CC=C3C(=O)O[C@@H](c4ccoc4)C[C@@]3(C)[C@@H]1CC=CC2=O` [FIBARURETIN D], the Activity in the test on Mus musculus [1] is 19.44%; with Mus musculus [2], 24.17%; with Mus musculus [3], 25.18%; in the test with Mus musculus [4] it was 21.55%; in the test with Mus musculus [5], 20.67%; in the test on Mus musculus [6] it was 20.5%. Besides, the Activity in the test with Mus musculus [7] amounted to 17%; with Mus musculus [8], 20.91%; with Mus musculus [9] it was 22.79%; in the test with Mus musculus [10] it was 21.47%; in the test with Mus musculus [11], 23.67%; in the test with Mus musculus [12], 23.41%.
In the case of `C[C@@]12C[C@H](c3ccoc3)OC(=O)C1=CC[C@]1(C)[C@H]2[C@@H]2OC(=O)[C@@]1(O)[C@H]1O[C@@H]21` [FIBRAURIN], the Activity in the test on Mus musculus [1] is 19.68%; in the test on Mus musculus [2], 27.17%; in the test with Mus musculus [3], 28.66%; in the test with Mus musculus [4], 30.5%; with Mus musculus [5], 32.19%; in the test on Mus musculus [6], 33.57%. Further, the Activity is recorded as 10.1% in the test on Mus musculus [7]; 12.44% with Mus musculus [8]; 14% with Mus musculus [9]; 10.85% in the test on Mus musculus [10]; 11.41% with Mus musculus [11]; 10.61% with Mus musculus [12]. The Activity entry in the test on RAW264.7 was “Dose-dependent effect”.
`COc1ccc2c(c1)c(CC(=O)O)c(C)n2C(=O)c1ccc(Cl)cc1` [INDOMETHACIN]: the Activity was determined as 20.77% in the test with Mus musculus [13]; 21.48% in the test on Mus musculus [14]; 19.53% in the test with Mus musculus [15]; 18.52% in the test with Mus musculus [16]; 17.04% in the test on Mus musculus [17]; 16.3% in the test with Mus musculus [18].
Take `C[C@@]12C[C@H](c3ccoc3)OC(=O)C1=CC[C@]1(C)[C@H]2[C@H]2C=C[C@]1(O[C@@H]1O[C@H](CO)[C@@H](O)[C@H](O)[C@H]1O)C(=O)O2` [FIBLEUCINOSIDE]: the Activity in the test with Mus musculus [1] is 15.64%; in the test with Mus musculus [2] it was 18.8%; with Mus musculus [3], 24.26%; in the test on Mus musculus [4], 22.82%; with Mus musculus [5], 24.01%; in the test with Mus musculus [6], 23.88%. In addition, the Activity in the test with Mus musculus [7] is reported as 14.91%; in the test with Mus musculus [8], 19.05%; in the test with Mus musculus [9], 19.82%; in the test on Mus musculus [10] it was 21.31%; with Mus musculus [11] it was 22.01%; in the test on Mus musculus [12], 20.11%.
On to `C[C@@]12C[C@H](c3ccoc3)OC(=O)C1=CC[C@]1(C)[C@H]2[C@@H]2OC(=O)[C@@]1(O[C@@H]1O[C@H](CO)[C@@H](O)[C@H](O)[C@H]1O)[C@H]1O[C@@H]21` [FIBRAURINOSIDE], for which the Activity in the test with Mus musculus [1] came out at 17.12%; in the test with Mus musculus [2], 18.18%; in the test with Mus musculus [3], 18.99%; in the test with Mus musculus [4], 20.36%; in the test with Mus musculus [5], 20.89%; with Mus musculus [6], 18.48%. Besides, the Activity in the test on Mus musculus [7] is 18.67%; in the test on Mus musculus [8], 23.03%; in the test with Mus musculus [9], 25.07%; with Mus musculus [10], 25.03%; in the test on Mus musculus [11], 25.25%; with Mus musculus [12], 24.8%. For the same molecule, in the test with RAW264.7, the Activity result is “Dose-dependent effect”.
For the molecule `C[C@@]12C[C@H](c3ccoc3)OC(=O)[C@@H]1CC[C@@]1(CO[C@@H]3O[C@H](CO)[C@@H](O)[C@H](O)[C@H]3O)C(=O)C=CC[C@H]12`, in the test on RAW264.7, the Activity entry is “Dose-dependent effect”.
`COC(=O)C1=CCC[C@H]2[C@]3(C)C[C@@H](c4ccoc4)OC(=O)[C@H]3CC[C@@]12C` [FLORIBUNDIC ESTER]: the Activity in the test with Mus musculus [1] came to 16.27%; in the test on Mus musculus [2], 20.95%; in the test on Mus musculus [3], 21.51%; with Mus musculus [4], 21.84%; in the test with Mus musculus [5], 21.85%; in the test on Mus musculus [6], 20.18%. In addition, the Activity in the test with Mus musculus [7] was 13.07%; in the test on Mus musculus [8], 15.46%; in the test with Mus musculus [9], 16.78%; in the test on Mus musculus [10], 13.95%; with Mus musculus [11], 14.9%; in the test on Mus musculus [12], 13.07%.
On to `C[C@@]12[C@H]3CC=C[C@@]1(O[C@@H]1O[C@H](CO)[C@@H](O)[C@H](O)[C@H]1O)C(=O)O[C@@H]2C[C@]1(O)C(=O)O[C@H](c2ccoc2)C[C@@]31C`, for which the Activity result in the test with RAW264.7 was “Dose-dependent effect”.
For `C[C@@]12C[C@@H](c3ccoc3)OC(=O)[C@H]1CC[C@@H]1[C@H]2C[C@@H]2OC(=O)[C@@]1(O)[C@@H]2O` [FIBRAURETIN B], the Activity in the test on Mus musculus [1] was 14%; in the test on Mus musculus [2], 20.1%; in the test on Mus musculus [3], 24.03%; in the test on Mus musculus [4], 23.43%; in the test on Mus musculus [5], 26.73%; in the test with Mus musculus [6] it was 28.34%. For the same molecule, the Activity with Mus musculus [7] is reported as 11.45%; in the test with Mus musculus [8], 19.17%; in the test with Mus musculus [9] it was 16.73%; in the test with Mus musculus [10] it was 15.21%; with Mus musculus [11], 17.69%; with Mus musculus [12], 18.16%.
